Data set [1] deals with ACHN cells. The data set is described as follows: ACHN tumor xenograft growth. The class given is in vivo, nude mice. The protocol:
(§1) IC50% for each cell line and each drug was determined. Each point represents IC50% of particular cell line, which are grouped as follows: (i) black circles—RCC cell lines (ACHN, RCC9, RCC13, RCC29, RCC45, RCC54), (ii) red triangles—non-RCC cell lines (MCF7, HT1080, H1299, U20S, LNCaP, HCT116), (iii) green squares—normal kidney cells (NKE). […] 10^7 of ACHN cells were inoculated under the skin of nude mice. At the moment tumors achieved 5 mm in diameter QC administrations were started intraperitoneally, 50 mg/kg. 5FU (35 mg/kg) was used as a control. Tumor size was measured every other day and presented as a fold increase in tumor volume.
(§2) NIH Swiss athymic nude, male mice, 5-6 weeks old were purchased from Harlan. 5×10^6 of tumor cells were inoculated into the flank of mice in 100 μL of PBS. […] As vehicle, 50% DMSO solution in PBS was used. Tumor size was measured in three dimensions every other day.

In data set [2] the test system is IκB. The data set is described as follows: Western blot of IκB level and phosphorylation. The class given is cell-based. The conditions noted are these: PC-3 cells, 10 μM; MCF7 cells. As for the experimental part:
(§3) Western blot analysis of total protein lysates was performed using antibodies against p53 (DO1) and against specific sites of phosphorylation in p53. […] HCT116 cells were treated for 30 minutes with 1 μM PS-341. PS-341 was washed off after 30 minutes and cells were re-incubated in drug free medium prior to analysis at 3 hours or 16 hours post-treatment. […] Proteasome activity was determined by measuring the absorbance of free AMC generated by cleavage of an AMC-fluorogenic peptide. The proteasome activity of untreated cells was set at 100%. […] Cell lysates were isolated at the indicated hours after treatment and used for western blotting. […]
(§4) Cells were lysed in RIPA buffer (25 mM Tris HCl, pH7.2, 125 mM NaCl, 1% NP40, 1% sodium deoxycholate, 1 mM EDTA) containing 1 mM PMSF (Sigma), 10 μg/ml of aprotinin (Sigma) and 10 μg/ml of leupeptin (Sigma). Protein concentrations were determined with BioRad Dc protein assay kit. […] The following antibodies were used: anti-p53—monoclonal mouse DO1 (Santa-Cruz), anti-p21—monoclonal mouse F-5 (Santa-Cruz), anti-mdm2—monoclonal mouse SMP14 (Santa-Cruz). p53 phosphorylation status was analyzed using phospho-p53 sampler kit from Cell signaling according to manufacturer's recommendations, anti-p65—(C20, Santa Cruz), anti-phospho-p65—(ser536, Cell Signaling), anti-IκBa—(C21, Santa Cruz), anti-p50—(NLS, Santa Cruz). […]

In data set [3] the test system is HT1080-sip53 and HT1080-siGFP cells. The experiment in a line: Cell survival assay in isogenic cell pairs with anti-p53 or control siRNA. It counts as cell-based, human. The conditions noted are these: p53 plus vs minus cells; FIG. 4d.
Data set [4] has as its system RCC specimens and fragments of normal kidney. The experiment in a line: p53-responsive lacZ reporter in ex vivo organ cultures. The class given is cell-based. Conditions: 24 hours, X-gal. As for the experimental part: as §1
Fresh RCC specimens and fragments of normal kidney from the same patients were placed in short-term organ cultures in the media containing lentiviral vector carrying p53-responsive lacZ reporter (FIG. 10B) for 24 hours.

In data set [5] the test system is p53. The experiment in a line: Western blot of p53 phosphorylation status in RCC45 cells. The class given is cell-based. The conditions noted are these: 9AA 5 μM or dox 1 μM, 16 hours. As for the experimental part:
as §3, §4
In general terms: Immunoblotting shows a protein as a band on a membrane.

Data set [6] relates to HT1080siGFP cells. The experiment in a line: Xenograft tumor growth, p53-expressing tumors. It counts as in vivo, nude mice. Conditions: 50 mg/kg i.p. daily; 5FU 35 mg/kg for comparison. The protocol: (§5) HT1080ConALuC cells were inoculated into two flanks of nude mice. When tumors reach 5 mm in diameter, mice were injected intraperitoneally with indicated concentrations of the drugs (mg/kg, 3 mice per group). After 24 hours mice were sacrificed, tumors were isolated, lysed in Reporter Lysis Reagent (Promega) and luciferase activity was measured in […] of tumor proteins. Bars represent fold of induction of luciferase activity in tumors, treated with drugs over luciferase activity in tumors treated with vehicle. FIG. 5B: HT1080sip53 or HT1080siGFP cells were inoculated in the left and right flank of nude mice respectively.
as §2

Data set [7] deals with HT1080sip53 cells. The experiment in a line: Xenograft tumor growth, p53-deficient tumors. The class given is in vivo, nude mice. Conditions: 50 mg/kg i.p. daily. As for the experimental part: as §5, §2
For data set [8], the system named is RCC cell lines. The data set is described as follows: Restoration of p53-mediated transactivation in RCC cell lines. It counts as cell-based. Conditions: data not shown.
Data set [9] has as its system H1299-NF-kBLuc cells. The experiment in a line: NF-κB-responsive luciferase reporter assay. The conditions noted are these: basal and TNF-induced (10 ng/ml). The class given is cell-based. (A reporter such as luciferase makes a cellular process visible.)
The test system of data set [10] is HT1080ConALuC tumors. The experiment in a line: p53-dependent luciferase reporter in xenograft tumors. It counts as in vivo. The conditions noted are these: intraperitoneal; 24 hours; nude mice. As for the experimental part:
as §5, §2
The in vivo anti-tumor effects of aminoacridines were tested in a xenograft tumor model using HT1080 cells differing in their p53 status and carrying p53 luciferase reporters grown subcutaneously in nude mice.

Data set [11] has as its system PC3 p53-negative or DU145 cells comprising mutant p53. The experiment in a line: Prostate cancer xenograft tumor growth. It counts as in vivo, mice. Conditions: 100 mg/kg by oral gavage; control sterile water. An excerpt: Mice were also inoculated with 2×10^6 human prostate cancer cells using PC3 p53-negative or with DU145 cells comprising mutant p53. […] Tumor growth was reduced by ˜50% in quinacrine-treated mice.

The subject of data set [12] is RCC54 and RCC45, normal kidney epithelial cells. The data set is described as follows: Sensitization to TRAIL, methylene blue assay. It counts as cell-based. The conditions noted are these: RCC54, RCC45 vs normal kidney epithelial cells; combination with TRAIL.
In data set [13] the test system is RCC45ConALacZ cells. The data set is described as follows: p53-responsive reporter (ConALacZ) β-galactosidase assay in RCC45 cells. The class given is cell-based. Conditions: compared with doxorubicin. The protocol: 2×10^4 of RCC45ConALacZ cells were plated into wells of 96 well plates in 200 μL of phenol-red free RPMI medium with standard additives. After overnight incubation library of chemical compounds in DMSO solution together with controls was added with the help of plastic bacterial replicators (200+/−100 nL). Final concentration of compounds was around 5 μg/ml. Negative control was DMSO, positive control was doxorubicin solution (0.2, 0.6 and 2 μM). After 24 hours lysis buffer with ONPG was added directly to the medium on ice. After 3 hours of incubation at 37° C., β-galactosidase activity was estimated by reading absorbance values Wallack 1420 plate reader (Perkin Elmer) at λ=430 nm.
For cotransfection set-up, 2×10^5 cells were plated into 6 well plates and, after overnight incubation, transfected with Lipofectamin Plus reagent (Gibco BRL) with 0.5 μg of reporter plasmids (p21-ConALuc or pNF-κBLuc) in combination with different concentrations of p53, Arf, Ss-IκB, or siHDM2 expressing plasmids. […] Luciferase activity and β-galactosidase activity was measured in lysates prepared 48 hours after transfection with Cell Lysis Buffer (Promega) by luciferase assay system (Promega) or β-galactosidase enzyme system (Promega). Luminometric and colorimetric reactions were read on the Wallack 1420 plate reader (Perkin Elmer). […]

Residues, ends and D or L forms follow the SMILES beside them. *: point of attachment. Cbz = O=C(OCc1ccccc1)*

For the compound `O=c1[nH]cc(F)c(=O)[nH]1` [5FU, 5-fluorouracil], the weight loss result in [1] (5FU 35 mg/kg) is recorded as “up to 20%”.

In the case of `CC(C)C[C@@H](C=O)NC(=O)[C@H](CC(C)C)NC(=O)[C@H](CC(C)C)NC(=O)OCc1ccccc1` [MG132] (Cbz-Leu-Leu-Leu-aldehyde), in data set [2], the “level of IκB” value was “caused accumulation of phosphorylated forms of IkB”.

Turning to `CC[C@@]1(O)C(=O)OCc2c1cc1n(c2=O)Cc2cc3ccccc3nc2-1` [camptothecin], in data set [3], the “toxicity found to be p53-dependent (none = not p53-dependent)” value is “none”.

In the case of `COc1cccc2c1C(=O)c1c(O)c3c(c(O)c1C2=O)C[C@@](O)(C(=O)CO)C[C@@H]3O[C@H]1C[C@H](N)[C@H](O)[C@H](C)O1` [doxorubicin], the “toxicity found to be p53-dependent (none = not p53-dependent)” value in data set [3] is recorded as “none”. The “expression of p53-responsive reporter in tumor samples” value in data set [4] is recorded as “not”. Besides, the p53 phosphorylation status entry in [5] was “did induce phosphorylation of p53”.

Turning to `CC(=O)O[C@H]1C(=O)[C@@]2(C)[C@H]([C@H](OC(=O)c3ccccc3)[C@]3(O)C[C@H](OC(=O)[C@H](O)[C@@H](NC(=O)c4ccccc4)c4ccccc4)C(C)=C1C3(C)C)[C@]1(OC(C)=O)CO[C@@H]1C[C@@H]2O` [paclitaxel], in data set [3], the “toxicity found to be p53-dependent (none = not p53-dependent)” value is reported as “none”.

`CCN(CC)CCCC(C)Nc1c2ccc(Cl)cc2nc2ccc(OC)cc12` (stereo not shown) [quinacrine, Quinacrine]: the “expression of p53-responsive reporter in tumor samples” value in [4] is “induced expression of the p53-responsive reporter”. Moreover, the “growth of p53-expressing tumors” value in data set [6] is “inhibited growth of p53-expressing tumors to the same extend as 5FU”. The “growth of p53-deficient tumors” value in [7] is “no effect”. For the same compound, the “RCC cell lines with restored p53-mediated transactivation” value in data set [8] is 9 out of 10. Besides, in data set [9], the NF-κB-responsive reporter activity result is “inhibited basal and TNF-induced activity of the reporter”. Further, the “activation of p53 in tumors” value in [10] is “capable of activating p53 in tumors”. For the same compound, the “reduction of tumor growth” value in data set [11] is about 50%. Also, the TRAIL resistance entry in data set [12] is listed as “inverted TRAIL resistance of tumor but not normal kidney cells”. For the same compound, the “weight loss (in words)” value in data set [1] (50 mg/kg intraperitoneally) is reported as “without significant weight loss”. The “inhibition of tumor growth” value in data set [1] (ACHN s.c. in nude mice, 50 mg/kg intraperitoneally) is listed as “about 50%”. Also, in [13], the “p53 reactivation / reporter induction (in words)” value was “intermediate level of activity”.

On to `CC[C@]1(O)C[C@@H]2CN(CCc3c([nH]c4ccccc34)[C@@](C(=O)OC)(c3cc4c(cc3OC)N(C)[C@H]3[C@@](O)(C(=O)OC)[C@H](OC(C)=O)[C@]5(CC)C=CCN6CC[C@]43[C@@H]65)C2)C1` [vinblastine], for which the “toxicity found to be p53-dependent (none = not p53-dependent)” value in [3] is listed as “none”.
